Measured values as given in ChEMBL document CHEMBL5338746, “New Generation of sGC Stimulators: Discovery of Imidazo[1,2-a]pyridine Carboxamide BAY 1165747 (BAY-747), a Long-Acting Soluble Guanylate Cyclase Stimulator for the Treatment of Resistant Hypertension” (J Med Chem, 2023).
pIC50: −log10 of the molar value. Converted amounts (≈) assume the structure as drawn. The source made the active and inactive calls. The rule behind the calls is not given here.

What was measured:
[1] = molecular target: Soluble guanylate cyclase alpha1/beta1 complex (Rattus norvegicus) (UniProt P19686+P20595); test: Stimulation of recombinant rat sGC alpha1/beta1 expressed in CHO cells assessed as formation of cGMP from GTP by measuring concentration for >3-fold increase in the basal luminescence value by luminescence based analysis; assay type: cell-based; settings: filed as activator
[2] = Metabolic stability in rat hepatocytes assessed as clearance measured upto 90 mins by LC-MS/MS analysis; assay type: ADME, cell-based, Hepatocyte
[3] = Oral bioavailability in Wistar rat at 1 mg/kg by LC-MS/MS analysis; assay type: ADME, organism-based; settings: in vivo
[4] = Efflux ratio of apparent permeability basolateral to apical side over apical to basolateral side in human Caco-2 cells incubated for 2 hrs by LC-MS/MS analysis; assay type: ADME, cell-based
[5] = Blood clearance in Wistar rat at 0.3 mg/kg, iv administered as infusion incubated for 20 mins by HR LC-MS/MS analysis; assay type: ADME, organism-based; settings: whole blood
[6] = Half life in Wistar rat at 0.3 mg/kg, iv administered as infusion by LC-MS/MS analysis; assay type: ADME, organism-based; settings: in vivo
[7] = Solubility of compound in PBS at pH 6.5 measured for 24 hrs by LC-MS/MS analysis; assay type: physicochemical
[8] = Volume of distribution at steady state in Wistar rat at 0.3 mg/kg, iv administered as infusion by LC-MS/MS analysis; assay type: ADME, organism-based; settings: in vivo, read-out: Vdss
[9] = Apparent permeability across apical to basolateral side in human Caco-2 cells incubated for 2 hrs by LC-MS/MS analysis; assay type: ADME, cell-based
[10] = Fraction unbound in po or iv dosed Wistar rat; assay type: ADME, organism-based; settings: in vivo
[11] = tested on: Aorta; test: Vasorelaxant activity in New Zealand White rabbits aortic rings assessed as reduction in phenylephrine-induced contraction measured after 30 mins; assay type: functional, tissue-based; settings: Oryctolagus cuniculus, 0.5 h
[12] = tested on: Rattus norvegicus; test: Antihypertensive activity in conscious normotensive Wistar rat model assessed as increase in heart rate at 10 mg/kg, po measured after 14 hrs by radiotelemetry; assay type: functional, organism-based
[13] = tested on: Rattus norvegicus; test: Hypotensive effect in conscious normotensive Wistar rat assessed as reduction in arterial blood pressure at 10 mg/kg, po administered for 21 days by tail-cuff method relative to control; assay type: functional; set-up: scale not given: the % may be the effect or the level left; settings: time 21 day
[14] = tested on: Rattus norvegicus; test: Antihypertensive activity in spontaneous hypertensive Wistar rat model assessed as reduction in blood pressure at 3 mg/kg, po measured after 12 hrs by radiotelemetry analysis; assay type: functional, organism-based
[15] = tested on: Rattus norvegicus; test: Hypotensive effect in conscious normotensive Wistar rat assessed as reduction in arterial blood pressure at 3 mg/kg, po administered for 21 days by tail-cuff method relative to control; assay type: functional; set-up: scale not given: the % may be the effect or the level left; settings: time 21 day
[16] = tested on: Rattus norvegicus; test: Hypotensive effect in conscious normotensive Wistar rat assessed as reduction in arterial blood pressure administered orally for 21 days by tail-cuff method; assay type: functional, organism-based; settings: dose 0.3-1 mg/kg, route po, time 21.0 day
[17] = tested on: Rattus norvegicus; test: Antihypertensive activity in spontaneous hypertensive Wistar rat model assessed as reduction in blood pressure po administered bolus injection by radiotelemetry analysis; assay type: functional, organism-based; settings: dose 0.3 mg/kg
[18] = tested on: Rattus norvegicus; test: Antihypertensive activity in spontaneous hypertensive Wistar rat assessed as decrease in systolic blood pressure at 1 mg/kg, iv administered as bolus injection measured for 21 days by tail-cuff method; assay type: functional; settings: time 21 day
[19] = tested on: Rattus norvegicus; test: Antihypertensive activity in spontaneous hypertensive Wistar rat assessed as decrease in systolic blood pressure at 0.3 mg/kg, iv administered as bolus injection measured for 21 days by tail-cuff method; assay type: functional; settings: time 21 day
[20] = tested on: Rattus norvegicus; test: Antihypertensive activity in spontaneous hypertensive Wistar rat assessed as decrease in systolic blood pressure at 3 mg/kg, iv administered as bolus injection measured for 21 days by tail-cuff method; assay type: functional; settings: time 21 day
[21] = tested on: Rattus norvegicus; test: Antihypertensive activity in spontaneous hypertensive Wistar rat assessed as decrease in systolic blood pressure iv administered as bolus injection measured for 21 days by tail-cuff method; assay type: functional, organism-based; settings: dose 0.3-3 mg/kg, time 21.0 day
[22] = tested on: Rattus norvegicus; test: Antihypertensive activity in conscious normotensive Wistar rat model assessed as increase in heart rate at 3 mg/kg, po measured after 14 hrs by radiotelemetry; assay type: functional, organism-based
[23] = tested on: Rattus norvegicus; test: Antihypertensive activity in spontaneous hypertensive Wistar rat model assessed as reduction in blood pressure at 10 mg/kg, po measured after 12 hrs by radiotelemetry analysis; assay type: functional; set-up: scale not given: the % may be the effect or the level left

SMILES: Cc1nc2c(OCC3CCC3)cccn2c1C(=O)NCCC1(O)CCCCC1
- MEC [1]: 3 µM

SMILES: CCCC[C@H](CO)NC(=O)c1cnc2c(OCc3c(F)cccc3F)cccn12
- CLhep predicted [2]: 13.3 mL/min/kg
- MEC [1]: 0.3 µM

SMILES: CCCC[C@H](CO)NC(=O)c1c(C)nc2c(OCc3cccc(F)c3F)cccn12
- CLhep predicted [2]: 25 mL/min/kg
- MEC [1]: 0.3 µM

SMILES: CCCC[C@H](CO)NC(=O)c1c(C)nc2c(OCc3c(F)cccc3F)cccn12
- bioavailability [3]: 65%
- CLhep predicted [2]: 33.3 mL/min/kg
- efflux ratio at 2 h [4]: 0.6
- clearance at […] [5]: 26.7 mL/min/kg
- half-life [6]: 48 min
- solubility at 24 h [7]: 3 µg/mL (≈ 7.19 µM)
- Vd [8]: 0.9 L/kg
- MEC [1]: 0.05 µM
- Papp A→B at 2 h [9]: 41.3 ×10⁻⁶ cm/s
- fraction unbound [10]: 0.049

SMILES: CCCC[C@H](CO)NC(=O)c1c(C)nc2c(OCc3c(F)cccc3F)cc(Cl)cn12
- CLhep predicted [2]: 48.3 mL/min/kg
- MEC [1]: 0.01 µM

SMILES: Cc1nc2c(OCc3c(F)cccc3F)cccn2c1C(=O)NC(CN)c1ccc(F)c(F)c1 (single isomer, unassigned; enantiomer B)
- pIC50 [11]: 6.20
- Activity [12]: Active
- Activity [13]: 10%
- Activity [14]: Active
- Activity [15]: 8%
- Activity [16]: Dose-Dependent Effect
- Activity [17]: Dose-Dependent Effect
- Activity [18]: -38 mmHg
- Activity [19]: -12 mmHg
- Activity [20]: -96 mmHg
- Activity [21]: Dose-Dependent Effect
- Activity [22]: Active
- Activity [23]: 20%

SMILES: CCCC[C@H](CO)NC(=O)c1c(C)nc2c(OCc3c(F)cccc3F)cc(F)cn12
- CLhep predicted [2]: 51.7 mL/min/kg
- MEC [1]: 0.03 µM

SMILES: Cc1nc2c(OCC3CCC3)cccn2c1C(=O)NCCOCCO
- CLhep predicted [2]: 25 mL/min/kg
- MEC [1]: 3 µM

SMILES: CCCC[C@H](CO)NC(=O)c1c(C)nc2c(OCc3c(F)cc(F)cc3F)cccn12
- CLhep predicted [2]: 26.7 mL/min/kg
- MEC [1]: 0.1 µM
